Measurements: patent publication US20220403001A1, “PDE5 DERIVED REGULATORY CONSTRUCTS AND METHODS OF USE IN IMMUNOTHERAPY” (Obsidian Therapeutics, Inc., priority 2018, published 2022)

What was measured:
hPDE5 mutants [1] = target: hPDE5 mutants (Homo sapiens, UniProt O76074); experiment: GFP FACS analysis of hPDE5 mutant library clones in NIH3T3 cell pools; details: experiment 1
Description: (§1) These constructs were packaged into lentivirus, transduced into NIH3T3 cells and select stable cell pools were derived as described below. […] Lentiviral stocks were used for transduction of NIH3T3 cells and subsequent cell pool selection. The day before transduction, NIH3T3 cells (1.8×10^6) were seeded in a T-25 flask and allowed to reach 60-70% confluency (˜1 day). The growth medium in the T-25 flask was then replaced with 1 mL virus (quickly thawed in a 37° C. water bath) and 5 μg/mL polybrene. […] Transduction medium was removed the following day and replaced with 5 mL fresh medium. At 48 hr after transduction, the medium was replaced with media containing 1 μg/mL puromycin. This puromycin medium was replaced every 3-4 days until cell pools were established (˜2 weeks).
(§2) The mean fluorescence intensity (MFI) of GFP at 100 μM concentration treatment was set as 100% hPDE5 stabilization effect (HPE), while DMSO treatment was set as 0% effect (ZPE) of hPDE5 stabilization. The effect of the compound on hPDE5 stabilization was calculated based on the following formula: % PDE5 stabilization effect=(MFI-ZPE)/(HPE-ZPE)×100.
(§3) Plots of the % effect versus concentration were generated with Graphpad Prism 5 and EC50 values were calculated using a four-parameter nonlinear regression model.
(§4) Select PDE5 clones from both experiment 1 and experiment 2 were directly compared. […] The stabilization ratio was calculated as the fold change in GFP intensity in ligand treated samples compared to treatment with DMSO (i.e. in the absence of ligand) with the same construct.

hPDE5 mutants [2] = experiment: as above; details: experiment 1
Description: as §1, §2, §3, §4

Substance: LibC000015: hPDE5 (Amino acid 535-860 of WT, T571S, V585M, T723S), DD generated by random mutagenesis
- MFI 10 μM VDF (hPDE5 mutants [1]; GFP, NIH3T3 cell pools, 10 μM vardenafil 24 hr): 1951
- MFI DMSO (hPDE5 mutants [1]; GFP, NIH3T3 cell pools, no ligand (DMSO)): 174
- GFP FACS analysis (MFI) (hPDE5 mutants [1]; SDF 3.704 μM): 331
- GFP FACS analysis (MFI) (hPDE5 mutants [1]; SDF 11.111 μM): 357
- GFP FACS analysis (MFI) (hPDE5 mutants [1]; SDF 33.333 μM): 432
- GFP FACS analysis (MFI) (hPDE5 mutants [1]; SDF 100 μM): 630
- GFP FACS analysis (MFI) (hPDE5 mutants [1]; TDF 3.704 μM): 326
- GFP FACS analysis (MFI) (hPDE5 mutants [1]; TDF 11.111 μM): 374
- GFP FACS analysis (MFI) (hPDE5 mutants [1]; TDF 33.333 μM): 463
- GFP FACS analysis (MFI) (hPDE5 mutants [1]; TDF 100 μM): 518
- GFP FACS analysis (MFI) (hPDE5 mutants [1]; VDF 1.235 μM): 756
- GFP FACS analysis (MFI) (hPDE5 mutants [1]; VDF 3.704 μM): 1383
- GFP FACS analysis (MFI) (hPDE5 mutants [1]; VDF 11.111 μM): 2315
- GFP FACS analysis (MFI) (hPDE5 mutants [1]; VDF 33.333 μM): 3166
- GFP FACS analysis (MFI) (hPDE5 mutants [1]; VDF 100 μM): 3069
- GFP FACS analysis (MFI) (hPDE5 mutants [2]; DMSO (no ligand), SDF series): 301
- GFP FACS analysis (MFI) (hPDE5 mutants [2]; DMSO (no ligand), TDF series): 306
- GFP FACS analysis (MFI) (hPDE5 mutants [2]; DMSO (no ligand), VDF series): 373
- GFP FACS analysis (MFI) (hPDE5 mutants [2]; SDF 1.235 μM): 320
- Percent stabilization effect (hPDE5 mutants [2]; SDF 1.235 μM): 5.8%
- Percent stabilization effect (hPDE5 mutants [2]; SDF 3.704 μM): 9.1%
- Percent stabilization effect (hPDE5 mutants [2]; SDF 11.111 μM): 17.0%
- Percent stabilization effect (hPDE5 mutants [2]; SDF 33.333 μM): 39.8%
- Percent stabilization effect (hPDE5 mutants [2]; SDF 100 μM (set as 100%)): 100.0%
- GFP FACS analysis (MFI) (hPDE5 mutants [2]; TDF 1.235 μM): 311
- Percent stabilization effect (hPDE5 mutants [2]; TDF 1.235 μM): 2.4%
- Percent stabilization effect (hPDE5 mutants [2]; TDF 3.704 μM): 9.4%
- Percent stabilization effect (hPDE5 mutants [2]; TDF 11.111 μM): 32.1%
- Percent stabilization effect (hPDE5 mutants [2]; TDF 33.333 μM): 74.1%
- Percent stabilization effect (hPDE5 mutants [2]; TDF 100 μM (set as 100%)): 100.0%
- Percent stabilization effect (hPDE5 mutants [2]; VDF 1.235 μM): 14.2%
- Percent stabilization effect (hPDE5 mutants [2]; VDF 3.704 μM): 37.5%
- Percent stabilization effect (hPDE5 mutants [2]; VDF 11.111 μM): 72.0%
- Percent stabilization effect (hPDE5 mutants [2]; VDF 33.333 μM): 103.6%
- Percent stabilization effect (hPDE5 mutants [2]; VDF 100 μM (set as 100%)): 100.0%
